From patent US12577536B2, “Method for isolating ureteric bud tip cells” (KYOTO UNIVERSITY, priority 2019, dated 2026)

What was measured:
Assay type in all cases: cell-based, human
[1] = test system: ND aggregates / iUB organoids; test: iUB organoid induction from ND aggregates; settings: 50 ng/ml EGF and 200 ng/ml FGF1 added together to organoid medium
Experimental: Unwanted cells were removed from the ND aggregates by pipetting (Mae, SI. & Ryosaka, M. et al. Biochem Biophys Res Commun. 495, 954-61 (2018)). The ND aggregates were treated with the same medium and factors containing 2% Matrigel for 6 days to constitute iUB organoids with epithelial polarity and tubular lumens. 50 ng/ml EGF (R&D Systems) and 200 ng/ml FGF1 (R&D Systems) were added to enhance budding. The tips were mechanically separated from iUB organoids and cultured in the same medium and factors containing 2% Matrigel for 6 to 14 days to reconstitute branching iUB organoids. The tips separated from the reconstituted iUB organoids were treated with the same medium and factors to repeatedly reconstitute iUB organoids.

[2] = test system: dissociated tip colony cells; test: Collecting duct progenitor induction, 2D culture with immunostaining
Experimental: For 2D cultures, day 7 tip cell colonies detached from hydrogel were dissociated into single cells by pipetting after treatment with Accutase for 3 min at 37° C. The single cells were resuspended with Essential 6 medium containing 1 μM IWR-1 (Tocris) and 0.5 μL/cm^2 iMatrix-511 silk with or without 1 μM A83-01 and seeded at a density of 4×10^4 cells/well in 96-well plates. For 3D cultures, day 14 reconstituted iUB organoids were treated with Essential 6 medium containing 1 μM IWR-1 and 1 μM A83-01 for 14 days.
Immunostaining analysis was performed as described previously with some modifications (Mae, SI. & Ryosaka, M. et al. Biochem Biophys Res Commun. 495, 954-61 (2018)). For 2D cultures, the cells were fixed with 4% paraformaldehyde (PFA)/PBS for 20 min at 4° C. After washing with PBS twice, the cells were blocked with 18 normal donkey serum (MERCK) and 3% bovine serum albumin (BSA; Nacalai Tesque)/PBST (PBS/0.25% Triton X-100, Nacalai Tesque) for 1 h at room temperature. Primary antibodies were diluted with blocking solution at 1:500 and incubated with the samples overnight at 4° C. After washing with PBST twice, secondary antibodies diluted with blocking solution at 1:500 were incubated for 1 h at room temperature.

tip cell colonies = test: Reconstitution of iUB organoids from tip cell colonies; settings: organoid medium with CHIR99021
Experimental: Hydrogel was dissolved with Cell Recovery Solution (BD Biosciences) for 1 h at 4° C. to detach day 7 tip cell colonies. After washing with additional Cell Recovery Solution, the tip cell colonies were centrifuged at 500 g for 5 min at room temperature. Essential 6 medium containing 0.1 μM LDN193189, 100 ng/ml GDNF, 0.1 μM TTNPB, 200 ng/ml FGF8, 1 μM CHIR99021 or 10% Afamin/Wnt3a conditioned medium (MBL), 200 ng/ml R-spondin 1 (R&D systems), 50 ng/ml EGF, 200 ng/ml FGF1 and 10% Matrigel was applied to the tube including tip cell colonies. After pipetting gently with a wide-mouth micropipette (BMBio) not to break colonies, the suspension was distributed to low-attachment 35 mm dish (Sumitomo Bakelite) at 2 mL/dish. The medium was refreshed every 2 days. On day 4, each colony was placed onto one well of low-attachment 96-well plates in the same medium. After an additional 6 days, the tip region was separated from the reconstituted iUB organoid and treated with the same medium for 35 days.

EGF: protein called Epidermal Growth Factor (R&D systems) (NSDSECPLSHDGYCLHDGVCMYIEALDKYACNCVVGYIGERCQYRDLKWWELR; Epidermal growth factor; UniProt P01133 971-1023, looked up)
budding of iUB organoids [1]: promoted budding

FGF1: fibroblast growth factor
budding of iUB organoids [1]: promoted budding

Cc1cccc(-c2nn(C(=S)Nc3ccccc3)cc2-c2ccnc3ccccc23)n1 [A83-01, 3-(6-Methyl-2-pyridinyl)-N-phenyl-4-(4-quinolinyl)-1H-pyrazole-1-carbothioamide]
induction rates of AQP2-expressing cells ([2]; 1 μM A83-01 in combination with 1 μM IWR-1, day 7 of 2D culture): improved the induction rates of these cells

Cc1c[nH]c(-c2cnc(NCCNc3ccc(C#N)cn3)nc2-c2ccc(Cl)cc2Cl)n1 [CHIR99021, 6-[2-[4-(2,4-Dichlorophenyl)-5-(4-methyl-1H-imidazole-2-yl)pyrimidine-2-ylamino]ethylamino]pyridine-3-carbonitrile]
reconstitution of iUB organoids from tip cell colonies (tip cell colonies): only observed with tip cell colonies derived from 585A1 iPS cells

O=C(Nc1cccc2cccnc12)c1ccc(N2C(=O)[C@@H]3[C@H](C2=O)[C@@H]2C=C[C@H]3C2)cc1 [IWR-1]
differentiation into AQP2-expressing, CAII-negative cells ([2]; 1 μM IWR-1, day 7 of 2D culture): facilitated the differentiation of dissociated tip colony cells into the cells expressing a collecting duct principal cell marker, Aquaporin (AQP) 2
